Results from patent US8772480B2, “Inhibitors of PI3 kinase and/or mTOR” (priority 2009, dated 2014).

Assays:
Type in all cases: biochemical
[1] = target: ProfilerPro Kinase Selectivity Assay Kit kinases (Homo sapiens, UniProt Q13188); settings: MST2; 1 μM compound concentration
Protocol: (§1) Compounds were profiled using a LabChip® EZ Reader II platform and a ProfilerPro Kinase Selectivity Assay Kit (Caliper Lifesciences Inc., Hopkinton, Mass.). Compounds were tested at a concentration of 1 M in duplicate, with mean data reported as percent of control (POC).

[2] = target: ProfilerPro Kinase Selectivity Assay Kit kinases (Homo sapiens, UniProt O95819); settings: HGK; 1 μM compound concentration
Protocol: as §1

[3] = target: ProfilerPro Kinase Selectivity Assay Kit kinases (Homo sapiens, UniProt O00141); settings: SGK1; 1 μM compound concentration
Protocol: as §1

[4] = target: ProfilerPro Kinase Selectivity Assay Kit kinases (Homo sapiens, UniProt P12931); settings: SRC; 1 μM compound concentration
Chain of ProfilerPro Kinase Selectivity Assay Kit kinases (Homo sapiens, UniProt P12931) (P12931 2-536 limits assumed): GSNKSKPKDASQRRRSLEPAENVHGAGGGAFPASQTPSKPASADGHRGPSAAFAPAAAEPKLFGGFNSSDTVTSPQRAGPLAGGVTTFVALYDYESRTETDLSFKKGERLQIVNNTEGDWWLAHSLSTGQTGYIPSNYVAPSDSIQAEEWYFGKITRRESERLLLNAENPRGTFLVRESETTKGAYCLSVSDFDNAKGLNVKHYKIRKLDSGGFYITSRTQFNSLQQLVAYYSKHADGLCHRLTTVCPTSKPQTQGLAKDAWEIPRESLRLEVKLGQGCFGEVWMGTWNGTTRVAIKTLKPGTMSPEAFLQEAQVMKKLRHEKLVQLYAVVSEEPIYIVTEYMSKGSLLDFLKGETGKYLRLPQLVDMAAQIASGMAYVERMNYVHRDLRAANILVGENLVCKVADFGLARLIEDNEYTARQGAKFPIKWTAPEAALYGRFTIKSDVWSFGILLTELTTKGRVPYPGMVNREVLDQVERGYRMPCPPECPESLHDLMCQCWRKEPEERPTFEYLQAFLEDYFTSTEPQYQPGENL
Protocol: as §1

[5] = target: ProfilerPro Kinase Selectivity Assay Kit kinases (Homo sapiens, UniProt P31751); settings: AKT2; 1 μM compound concentration
Protocol: as §1

[6] = target: ProfilerPro Kinase Selectivity Assay Kit kinases (Homo sapiens, UniProt P24941); settings: CDK2; 1 μM compound concentration
Protocol: as §1

[7] = target: ProfilerPro Kinase Selectivity Assay Kit kinases (Homo sapiens, UniProt O14757); settings: CHK1; 1 μM compound concentration
Protocol: as §1

[8] = target: ProfilerPro Kinase Selectivity Assay Kit kinases (Homo sapiens, UniProt P06241); settings: FYN; 1 μM compound concentration
Chain of ProfilerPro Kinase Selectivity Assay Kit kinases (Homo sapiens, UniProt P06241) (P06241 2-537 limits assumed): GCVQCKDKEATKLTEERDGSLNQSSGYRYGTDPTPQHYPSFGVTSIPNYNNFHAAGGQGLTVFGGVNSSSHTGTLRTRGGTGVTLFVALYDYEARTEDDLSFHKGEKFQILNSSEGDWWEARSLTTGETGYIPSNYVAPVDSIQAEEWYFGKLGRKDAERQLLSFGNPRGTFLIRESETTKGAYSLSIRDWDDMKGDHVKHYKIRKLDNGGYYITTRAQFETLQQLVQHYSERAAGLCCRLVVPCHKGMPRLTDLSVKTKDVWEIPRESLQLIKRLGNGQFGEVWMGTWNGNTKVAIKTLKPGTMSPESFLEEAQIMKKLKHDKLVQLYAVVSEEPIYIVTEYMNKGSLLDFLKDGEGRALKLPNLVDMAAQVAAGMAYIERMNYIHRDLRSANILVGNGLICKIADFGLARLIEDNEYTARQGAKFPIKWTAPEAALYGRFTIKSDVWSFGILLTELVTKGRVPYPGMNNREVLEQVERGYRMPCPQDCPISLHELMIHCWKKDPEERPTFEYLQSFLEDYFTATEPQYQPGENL
Protocol: as §1

[9] = target: ProfilerPro Kinase Selectivity Assay Kit kinases (Homo sapiens, UniProt O75582); settings: MSK1; 1 μM compound concentration
Protocol: as §1

[10] = target: ProfilerPro Kinase Selectivity Assay Kit kinases (Homo sapiens, UniProt O14965); settings: AURORA A; 1 μM compound concentration
Protocol: as §1

[11] = target: ProfilerPro Kinase Selectivity Assay Kit kinases (Homo sapiens, UniProt P36888); settings: FLT3; 1 μM compound concentration
Protocol: as §1

[12] = target: ProfilerPro Kinase Selectivity Assay Kit kinases (Homo sapiens, UniProt Q9P0L2); settings: MARK1; 1 μM compound concentration
Protocol: as §1

[13] = target: ProfilerPro Kinase Selectivity Assay Kit kinases (Homo sapiens, UniProt Q9BZL6); settings: PKD2; 1 μM compound concentration
Protocol: as §1

[14] = target: ProfilerPro Kinase Selectivity Assay Kit kinases (Homo sapiens, UniProt P35968); settings: KDR; 1 μM compound concentration
Chain of ProfilerPro Kinase Selectivity Assay Kit kinases (Homo sapiens, UniProt P35968) (P35968 20-1356 limits assumed): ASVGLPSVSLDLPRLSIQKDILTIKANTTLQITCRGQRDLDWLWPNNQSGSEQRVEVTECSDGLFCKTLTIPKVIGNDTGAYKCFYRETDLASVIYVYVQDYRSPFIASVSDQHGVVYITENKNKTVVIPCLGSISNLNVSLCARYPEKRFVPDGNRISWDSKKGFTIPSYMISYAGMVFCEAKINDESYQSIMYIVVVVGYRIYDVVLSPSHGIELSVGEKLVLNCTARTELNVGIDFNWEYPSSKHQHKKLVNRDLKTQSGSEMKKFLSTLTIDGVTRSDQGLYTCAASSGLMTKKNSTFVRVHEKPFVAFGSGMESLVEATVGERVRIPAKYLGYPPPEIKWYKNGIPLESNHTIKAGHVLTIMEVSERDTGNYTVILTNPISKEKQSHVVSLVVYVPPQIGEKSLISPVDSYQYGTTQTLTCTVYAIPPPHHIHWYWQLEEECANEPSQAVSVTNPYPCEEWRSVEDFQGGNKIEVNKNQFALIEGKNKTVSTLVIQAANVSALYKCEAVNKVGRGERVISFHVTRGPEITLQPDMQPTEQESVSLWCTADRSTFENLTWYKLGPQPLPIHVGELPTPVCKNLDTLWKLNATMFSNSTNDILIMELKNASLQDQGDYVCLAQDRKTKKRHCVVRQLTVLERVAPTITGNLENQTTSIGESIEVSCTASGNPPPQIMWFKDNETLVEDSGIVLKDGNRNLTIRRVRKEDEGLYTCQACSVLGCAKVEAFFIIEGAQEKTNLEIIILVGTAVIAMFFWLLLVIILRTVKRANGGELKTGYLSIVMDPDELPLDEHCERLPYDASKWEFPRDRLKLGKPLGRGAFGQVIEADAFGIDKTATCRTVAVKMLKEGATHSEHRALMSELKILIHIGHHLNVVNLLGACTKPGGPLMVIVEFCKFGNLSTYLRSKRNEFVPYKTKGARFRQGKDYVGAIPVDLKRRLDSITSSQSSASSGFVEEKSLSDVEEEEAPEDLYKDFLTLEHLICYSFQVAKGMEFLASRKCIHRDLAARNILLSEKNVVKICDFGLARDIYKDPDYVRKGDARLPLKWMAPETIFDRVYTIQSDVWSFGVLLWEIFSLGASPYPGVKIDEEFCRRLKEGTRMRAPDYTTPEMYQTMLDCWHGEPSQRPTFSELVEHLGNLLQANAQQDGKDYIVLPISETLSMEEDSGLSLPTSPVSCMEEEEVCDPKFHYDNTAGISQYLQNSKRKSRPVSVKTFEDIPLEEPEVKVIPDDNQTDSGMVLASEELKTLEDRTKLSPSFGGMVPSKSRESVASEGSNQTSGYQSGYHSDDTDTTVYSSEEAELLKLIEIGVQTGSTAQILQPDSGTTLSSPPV
Protocol: as §1

[15] = target: ProfilerPro Kinase Selectivity Assay Kit kinases (Homo sapiens, UniProt P17612); settings: PKA alpha; 1 μM compound concentration
Protocol: as §1

[16] = target: ProfilerPro Kinase Selectivity Assay Kit kinases (Homo sapiens, UniProt P49137); settings: MAPKAPK2; 1 μM compound concentration
Protocol: as §1

[17] = target: ProfilerPro Kinase Selectivity Assay Kit kinases (Homo sapiens, UniProt P08581); settings: cMET; 1 μM compound concentration
Protocol: as §1

[18] = target: ProfilerPro Kinase Selectivity Assay Kit kinases (Homo sapiens, UniProt P00519); settings: ABL; 1 μM compound concentration
Protocol: as §1

[19] = target: ProfilerPro Kinase Selectivity Assay Kit kinases (Homo sapiens, UniProt P43405); settings: SYK; 1 μM compound concentration
Protocol: as §1

[20] = target: ProfilerPro Kinase Selectivity Assay Kit kinases (Homo sapiens, UniProt O75116); settings: ROCK2; 1 μM compound concentration
Protocol: as §1

[21] = target: ProfilerPro Kinase Selectivity Assay Kit kinases (Homo sapiens, UniProt P11362); settings: FGFR1; 1 μM compound concentration
Chain of ProfilerPro Kinase Selectivity Assay Kit kinases (Homo sapiens, UniProt P11362) (P11362 22-822 limits assumed): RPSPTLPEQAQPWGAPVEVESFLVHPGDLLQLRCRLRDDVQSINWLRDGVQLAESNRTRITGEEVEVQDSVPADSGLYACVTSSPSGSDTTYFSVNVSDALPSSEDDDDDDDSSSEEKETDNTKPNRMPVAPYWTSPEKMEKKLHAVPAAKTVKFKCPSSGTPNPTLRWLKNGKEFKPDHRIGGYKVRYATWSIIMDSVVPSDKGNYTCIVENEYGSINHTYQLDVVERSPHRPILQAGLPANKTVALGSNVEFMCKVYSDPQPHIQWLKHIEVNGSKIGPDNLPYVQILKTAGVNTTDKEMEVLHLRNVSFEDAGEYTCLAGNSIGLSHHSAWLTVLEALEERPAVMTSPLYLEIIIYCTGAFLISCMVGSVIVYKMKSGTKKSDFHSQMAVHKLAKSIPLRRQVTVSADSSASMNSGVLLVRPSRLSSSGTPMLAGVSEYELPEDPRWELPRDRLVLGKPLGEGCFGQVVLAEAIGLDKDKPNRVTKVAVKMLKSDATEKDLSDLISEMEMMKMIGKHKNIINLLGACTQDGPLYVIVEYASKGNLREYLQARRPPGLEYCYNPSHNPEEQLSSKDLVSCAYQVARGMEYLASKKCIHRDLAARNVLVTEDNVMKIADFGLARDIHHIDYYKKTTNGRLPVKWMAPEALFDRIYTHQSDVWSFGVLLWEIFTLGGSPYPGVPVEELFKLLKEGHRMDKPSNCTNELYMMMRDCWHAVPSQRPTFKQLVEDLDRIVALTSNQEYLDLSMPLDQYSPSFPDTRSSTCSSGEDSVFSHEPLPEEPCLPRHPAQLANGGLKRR
Protocol: as §1

[22] = target: ProfilerPro Kinase Selectivity Assay Kit kinases (Homo sapiens, UniProt Q8IW41); settings: PRAK; 1 μM compound concentration
Protocol: as §1

[23] = target: ProfilerPro Kinase Selectivity Assay Kit kinases (Homo sapiens, UniProt P08069); settings: IGF1R; 1 μM compound concentration
Protocol: as §1

[24] = target: ProfilerPro Kinase Selectivity Assay Kit kinases (Homo sapiens, UniProt Q13177); settings: PAK2; 1 μM compound concentration
Chain of ProfilerPro Kinase Selectivity Assay Kit kinases (Homo sapiens, UniProt Q13177) (Q13177 2-524 limits assumed): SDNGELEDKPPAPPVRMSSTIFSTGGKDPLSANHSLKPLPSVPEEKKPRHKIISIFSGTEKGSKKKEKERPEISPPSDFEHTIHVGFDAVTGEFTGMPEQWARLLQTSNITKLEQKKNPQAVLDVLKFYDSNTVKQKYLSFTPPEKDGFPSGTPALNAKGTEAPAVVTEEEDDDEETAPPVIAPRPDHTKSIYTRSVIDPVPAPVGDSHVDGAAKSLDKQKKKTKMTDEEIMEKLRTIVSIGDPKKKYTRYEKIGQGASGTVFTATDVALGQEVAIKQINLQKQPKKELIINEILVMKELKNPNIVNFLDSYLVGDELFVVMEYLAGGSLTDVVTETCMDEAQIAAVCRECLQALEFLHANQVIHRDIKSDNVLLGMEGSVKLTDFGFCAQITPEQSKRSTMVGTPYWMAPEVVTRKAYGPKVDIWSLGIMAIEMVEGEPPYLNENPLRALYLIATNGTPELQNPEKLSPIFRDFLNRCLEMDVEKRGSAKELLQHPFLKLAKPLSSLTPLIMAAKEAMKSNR
Protocol: as §1

[25] = target: ProfilerPro Kinase Selectivity Assay Kit kinases (Homo sapiens, UniProt Q06187); settings: BTK; 1 μM compound concentration
Chain of ProfilerPro Kinase Selectivity Assay Kit kinases (Homo sapiens, UniProt Q06187) (Q06187 2-659 limits assumed): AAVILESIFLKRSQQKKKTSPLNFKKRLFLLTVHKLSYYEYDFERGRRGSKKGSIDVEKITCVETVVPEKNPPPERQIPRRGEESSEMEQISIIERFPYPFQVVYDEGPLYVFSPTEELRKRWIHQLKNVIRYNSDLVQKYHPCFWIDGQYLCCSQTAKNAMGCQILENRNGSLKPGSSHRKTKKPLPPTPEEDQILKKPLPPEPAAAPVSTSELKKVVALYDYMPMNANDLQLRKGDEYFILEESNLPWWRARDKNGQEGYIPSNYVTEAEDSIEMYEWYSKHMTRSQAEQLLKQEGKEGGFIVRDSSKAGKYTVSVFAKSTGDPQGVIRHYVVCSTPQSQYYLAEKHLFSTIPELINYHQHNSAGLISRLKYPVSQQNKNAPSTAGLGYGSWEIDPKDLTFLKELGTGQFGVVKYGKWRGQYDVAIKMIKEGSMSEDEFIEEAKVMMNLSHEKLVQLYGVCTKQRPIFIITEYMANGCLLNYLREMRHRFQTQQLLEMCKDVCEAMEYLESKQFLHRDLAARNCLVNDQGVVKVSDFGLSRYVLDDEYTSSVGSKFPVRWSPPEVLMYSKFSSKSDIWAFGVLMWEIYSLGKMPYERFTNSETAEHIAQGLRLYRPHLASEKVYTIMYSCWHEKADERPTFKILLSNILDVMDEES
Protocol: as §1

[26] = target: ProfilerPro Kinase Selectivity Assay Kit kinases (Homo sapiens, UniProt Q13627); settings: DYRK1a; 1 μM compound concentration
Protocol: as §1

[27] = tested on: ProfilerPro Kinase Selectivity Assay Kit kinases; settings: 1 μM compound concentration
Protocol: as §1

[28] = target: ProfilerPro Kinase Selectivity Assay Kit kinases (Homo sapiens, UniProt P48730); settings: CK1 delta; 1 μM compound concentration
Protocol: as §1

[29] = target: ProfilerPro Kinase Selectivity Assay Kit kinases (Homo sapiens, UniProt P27361); settings: ERK1; 1 μM compound concentration
Protocol: as §1

[30] = target: ProfilerPro Kinase Selectivity Assay Kit kinases (Homo sapiens, UniProt P06213); settings: INSR; 1 μM compound concentration
Protocol: as §1

[31] = target: ProfilerPro Kinase Selectivity Assay Kit kinases (Homo sapiens, UniProt P07948); settings: LYN; 1 μM compound concentration
Chain of ProfilerPro Kinase Selectivity Assay Kit kinases (Homo sapiens, UniProt P07948) (P07948 2-512 limits assumed): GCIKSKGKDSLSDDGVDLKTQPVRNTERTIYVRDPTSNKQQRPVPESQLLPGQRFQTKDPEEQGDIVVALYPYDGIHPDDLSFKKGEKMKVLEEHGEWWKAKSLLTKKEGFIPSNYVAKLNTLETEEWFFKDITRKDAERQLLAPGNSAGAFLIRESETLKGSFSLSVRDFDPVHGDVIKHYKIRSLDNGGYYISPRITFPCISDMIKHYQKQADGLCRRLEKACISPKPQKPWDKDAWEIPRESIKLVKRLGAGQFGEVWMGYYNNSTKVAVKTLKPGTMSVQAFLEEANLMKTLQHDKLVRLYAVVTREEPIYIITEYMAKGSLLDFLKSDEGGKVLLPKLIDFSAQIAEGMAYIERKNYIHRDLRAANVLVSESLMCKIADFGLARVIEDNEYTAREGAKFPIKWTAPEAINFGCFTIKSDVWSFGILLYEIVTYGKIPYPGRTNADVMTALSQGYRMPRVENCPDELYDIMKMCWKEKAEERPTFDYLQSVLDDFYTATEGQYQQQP
Protocol: as §1

Compound	POC (Percent of control) MST2 [1]	POC (Percent of control) HGK [2]	POC (Percent of control) SGK1 [3]	POC (Percent of control) SRC [4]	POC (Percent of control) AKT2 [5]	POC (Percent of control) CDK2 [6]	POC (Percent of control) CHK1 [7]	POC (Percent of control) FYN [8]	POC (Percent of control) MSK1 [9]	POC (Percent of control) AURORA A [10]	POC (Percent of control) FLT3 [11]	POC (Percent of control) MARK1 [12]	POC (Percent of control) PKD2 [13]	POC (Percent of control) KDR [14]	POC (Percent of control) PKA alpha [15]	POC (Percent of control) MAPKAPK2 [16]	POC (Percent of control) cMET [17]	POC (Percent of control) ABL [18]	POC (Percent of control) SYK [19]	POC (Percent of control) ROCK2 [20]	also measured
c1cnc(Nc2cccc3[nH]ncc23)c(-c2ncnc3[nH]cnc23)c1 [Example 18, N-(3-(9H-Purin-6-yl)Pyridin-2-yl)-1H-Indazol-4-Amine]	96 POC	92 POC	97 POC	93 POC	93 POC	91 POC	97 POC	86 POC	97 POC	84 POC	106 POC	112 POC	97 POC	89 POC	97 POC	93 POC	104 POC	77 POC	63 POC	98 POC	POC (Percent of control) FGFR1 [21]: 62 POC; POC (Percent of control) PRAK [22]: 95 POC; POC (Percent of control) IGF1R [23]: 64 POC; POC (Percent of control) PAK2 [24]: 96 POC; POC (Percent of control) BTK [25]: 99 POC; POC (Percent of control) DYRK1a [26]: 59 POC; POC (Percent of control) AMPK [27]: 83 POC; POC (Percent of control) CAMK2 [27]: 90 POC; POC (Percent of control) PKC beta2 [27]: 91 POC; POC (Percent of control) TAK1 [27]: 97 POC; POC (Percent of control) CK1 delta [28]: 35 POC; POC (Percent of control) ERK1 [29]: 104 POC; POC (Percent of control) INSR [30]: 90 POC; POC (Percent of control) LYN [31]: 81 POC
c1cnc(Nc2cccc3[nH]ccc23)c(-c2ncnc3[nH]cnc23)c1 [Example 19, N-(3-(9H-Purin-6-yl)Pyridin-2-yl)-1H-Indol-4-Amine]	82 POC	50 POC	88 POC	23 POC	110 POC	90 POC	83 POC	33 POC	106 POC	24 POC	25 POC	95 POC	97 POC	29 POC	70 POC	90 POC	89 POC	19 POC	15 POC	104 POC	POC (Percent of control) FGFR1 [21]: 51 POC; POC (Percent of control) PRAK [22]: 84 POC; POC (Percent of control) IGF1R [23]: 94 POC; POC (Percent of control) PAK2 [24]: 105 POC; POC (Percent of control) BTK [25]: 75 POC; POC (Percent of control) DYRK1a [26]: 66 POC; POC (Percent of control) AMPK [27]: 57 POC; POC (Percent of control) CAMK2 [27]: 84 POC; POC (Percent of control) PKC beta2 [27]: 94 POC; POC (Percent of control) TAK1 [27]: 90 POC; POC (Percent of control) CK1 delta [28]: 72 POC; POC (Percent of control) ERK1 [29]: 93 POC; POC (Percent of control) INSR [30]: 88 POC; POC (Percent of control) LYN [31]: 50 POC
COc1ccc(Nc2ncccc2-c2ncnc3[nH]cnc23)cn1 [Example 20, N-(6-Methoxypyridin-3-yl)-3-(9H-Purin-6-yl)Pyridin-2-Amine]	95 POC	94 POC	95 POC	95 POC	92 POC	96 POC	104 POC	101 POC	93 POC	96 POC	120 POC	108 POC	100 POC	93 POC	97 POC	100 POC	106 POC	99 POC	107 POC	101 POC	POC (Percent of control) FGFR1 [21]: 94 POC; POC (Percent of control) PRAK [22]: 99 POC; POC (Percent of control) IGF1R [23]: 93 POC; POC (Percent of control) PAK2 [24]: 103 POC; POC (Percent of control) BTK [25]: 98 POC; POC (Percent of control) DYRK1a [26]: 102 POC; POC (Percent of control) AMPK [27]: 93 POC; POC (Percent of control) CAMK2 [27]: 111 POC; POC (Percent of control) PKC beta2 [27]: 104 POC; POC (Percent of control) TAK1 [27]: 99 POC; POC (Percent of control) CK1 delta [28]: 93 POC; POC (Percent of control) ERK1 [29]: 96 POC; POC (Percent of control) INSR [30]: 97 POC; POC (Percent of control) LYN [31]: 92 POC
